Reference: ChEMBL document CHEMBL6074682, “Expanding the therapeutic window of gramicidin S towards a safe and effective systemic treatment of methicillin-resistant S. aureus infections” (Eur J Med Chem, 2025)
Converted amounts (≈) assume the structure as drawn. Square brackets hold non-standard residues; d marks the D form. Peptide text beside a SMILES is read from it. Tle = CC(C)(C)[C@H](N)C(=O)O; Orn = NCCC[C@H](N)C(=O)O

What was measured:
[1] = Hemolytic activity in human RBC assessed as hemolysis incubated for 1 hr by absorbance based assay; type: toxicity, cell-based, Erythrocyte; details: human red blood cells
Staphylococcus aureus [2] = assay: Antibacterial activity against methicillin-sensitive Staphylococcus aureus ATCC 29213 clinical isolate assessed as bacterial growth inhibition at 256 to 0.125 ug/ml in CAMH broth medium incubated for 16 to 20 hrs by broth microdilution method; type: functional; details: dose 256-0.125 µg/ml, time 16-20 hrs
[3] = Therapeutic index, ratio of HC50 for human RBC to MIC for antibacterial activity against methicillin-sensitive Staphylococcus aureus ATCC 29213 clinical isolate; type: toxicity, cell-based; details: pooled result: one value given for 2 cell lines, strains, targets or settings, read-out: TI
Staphylococcus aureus [4] = assay: Antibacterial activity against methicillin-resistant Staphylococcus aureus ATCC USA 300 clinical isolate assessed as bacterial growth inhibition at 256 to 0.125 ug/ml in CAMH broth medium incubated for 16 to 20 hrs by broth microdilution method; type: functional; details: dose 256-0.125 µg/ml, time 16-20 hrs
[5] = Nephrotoxicity against HEK293 cells assessed as cell viability incubated for 24 hrs by MTT assay; type: toxicity, cell-based; details: human
[6] = Retention time of the compound by RP-HPLC analysis; type: physicochemical
[7] = Hemolytic activity in sheep RBC; type: toxicity, cell-based, Ovis aries, Erythrocyte; details: sheep red blood cells

| SMILES | HC50 at 1 h [1] | MIC (Staphylococcus aureus [2]) | selectivity ratio [3] | MIC (Staphylococcus aureus [4]) | IC50 at 24 h [5] | Retention_time [6] | HC50 [7] |
| --- | --- | --- | --- | --- | --- | --- | --- |
| CC(C)C[C@@H]1NC(=O)[C@H](CCCN)NC(=O)[C@H](C(C)C)NC(=O)[C@@H]2CCCN2C(=O)[C@@H](Cc2ccccc2)NC(=O)[C@H](CC(C)C)NC(=O)[C@H](CCCN)NC(=O)[C@H](C(C)C)NC(=O)[C@@H]2CCCN2C(=O)[C@@H](CCCNC(=N)N)NC1=O (HELM PEPTIDE1{L.[dF].P.V.[Orn].L.[dR].P.V.[Orn]}$PEPTIDE1,PEPTIDE1,1:R1-10:R2$$$V2.0) | 39.2 µg/mL | 8 µg/mL (≈ 6.95 µM) | 4.9 | 8 µg/mL (≈ 6.95 µM) | 18.7 µg/mL (≈ 16.2 µM) | 16.22 min | > 115 µg/mL |
| CC(C)(C)[C@@H]1NC(=O)[C@H](CCCN)NC(=O)[C@H](C(C)(C)C)NC(=O)[C@@H]2CCCN2C(=O)[C@@H](Cc2ccccc2)NC(=O)[C@H](C(C)(C)C)NC(=O)[C@H](CCCN)NC(=O)[C@H](C(C)(C)C)NC(=O)[C@@H]2CCCN2C(=O)[C@@H](Cc2ccccc2)NC1=O (cyclo([Orn][Tle][dF]P[Tle][Orn][Tle][dF]P[Tle])) | 5.9 µg/mL | 2 µg/mL (≈ 1.71 µM) | 2.95 | 2 µg/mL (≈ 1.71 µM) | 5.31 µg/mL (≈ 4.54 µM) | 19.9 min |  |
| CC(C)C[C@@H]1NC(=O)[C@H](CCCN)NC(=O)[C@H](C(C)C)NC(=O)[C@@H]2CCCN2C(=O)[C@@H](CCCNC(=N)N)NC(=O)[C@H](CC(C)C)NC(=O)[C@H](CCCN)NC(=O)[C@H](C(C)C)NC(=O)[C@H](Cc2c[nH]c3ccccc23)NC(=O)[C@@H](Cc2ccccc2)NC1=O (HELM PEPTIDE1{L.[dF].W.V.[Orn].L.[dR].P.V.[Orn]}$PEPTIDE1,PEPTIDE1,1:R1-10:R2$$$V2.0) | 31.9 µg/mL | 5 µg/mL (≈ 4.03 µM) | 6.38 | 5 µg/mL (≈ 4.03 µM) | 11.3 µg/mL (≈ 9.13 µM) | 16.5 min |  |
| CC(C)C[C@@H]1NC(=O)[C@H](CCCN)NC(=O)[C@H](C(C)(C)C)NC(=O)[C@@H]2CCCN2C(=O)[C@@H](CCCNC(=N)N)NC(=O)[C@H](CC(C)C)NC(=O)[C@H](CCCN)NC(=O)[C@H](C(C)C)NC(=O)[C@@H]2CCCN2C(=O)[C@@H](Cc2ccccc2)NC1=O | 50.5 µg/mL | 7 µg/mL (≈ 6.01 µM) | 7.21 | 7 µg/mL (≈ 6.01 µM) | 38.1 µg/mL (≈ 32.7 µM) | 16.79 min |  |
| CC(C)C[C@@H]1NC(=O)[C@H](CCCN)NC(=O)[C@H](C(C)C)NC(=O)[C@@H]2CCCN2C(=O)[C@@H](Cc2ccccc2)NC(=O)[C@H](CC(C)C)NC(=O)[C@H](CCCN)NC(=O)[C@H](C(C)C)NC(=O)[C@H](Cc2c[nH]c3ccccc23)NC(=O)[C@@H](CCCNC(=N)N)NC1=O (HELM PEPTIDE1{L.[dF].P.V.[Orn].L.[dR].W.V.[Orn]}$PEPTIDE1,PEPTIDE1,1:R1-10:R2$$$V2.0) | 32.8 µg/mL | 5 µg/mL (≈ 4.03 µM) | 6.56 | 5 µg/mL (≈ 4.03 µM) | 13.6 µg/mL (≈ 11 µM) | 16.56 min |  |
